From patent US20100298141A1, “SUBSTITUTED PYRIDINE N-OXIDE HERBICIDES” (E. I. DU PONT DE NEMOURS AND COMPANY, priority 2007, published 2010)

Tests used:
[1] = system: crabgrass; assay: Test A pre-/postemergence greenhouse test; assay type: in vivo, Digitaria sanguinalis; settings: for Plant response rating, Crabgrass, Large: 0 to 100 scale where 0 is no effect and 100 is complete control; for Crabgrass, Large plant response rating: 0 to 100 scale
Procedure, shortened: (§1)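 Pots of loam–sand soil sown with the test species are sprayed preemergence on the soil surface; emerged seedlings (1–2 leaves, 2–10 cm) are sprayed postemergence at the same time. The vehicle is a non-phytotoxic solvent mixture with surfactant. Injury is scored visually after ~10 d in greenhouse.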

[2] = system: umbrella sedge; assay: Test C flooded paddy test; assay type: in vivo, Cyperus difformis; settings: Flood
Procedure, shortened: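 Greenhouse pots flooded to 3 cm above soil at time of treatment received compound via the water, which stayed at that level.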

[3] = system: common ragweed; assay: Test C pre-/postemergence test; assay type: in vivo, Ambrosia elation; settings: for Plant response rating, Ragweed: 31 g ai/ha, scale 0 to 100 (0 no effect, 100 complete control)
Procedure, shortened: (§2)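 Test chemicals were formulated with surfactant in a non-phytotoxic solvent and sprayed both on freshly planted seeds (preemergence) and on 1- to 4-leaf plants of 2–18 cm (postemergence). Flooded-paddy pots received compound directly into 3 cm of standing water, maintained for the test.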

[4] = system: johnsongrass; assay: Test C pre-/postemergence test; assay type: in vivo, Sorghum halepense; settings: for Plant response rating, Johnsongrass: 31 g ai/ha, scale 0 to 100 (0 no effect, 100 complete control)
Procedure, shortened: as §2

[5] = system: yellow nutsedge; assay: Test C pre-/postemergence test; assay type: in vivo, Cyperus esculentus; settings: for Plant response rating, Nutsedge, Yellow: 31 g ai/ha, scale 0 to 100 (0 no effect, 100 complete control)
Procedure, shortened: as §2

[6] = system: corn; assay: Test C pre-/postemergence test; assay type: in vivo, Zea mays; settings: for Plant response rating, Corn: 31 g ai/ha, scale 0 to 100 (0 no effect, 100 complete control)
Procedure, shortened: as §2

[7] = system: downy brome; assay: Test C pre-/postemergence test; assay type: in vivo, Bromus tectorum; settings: for Plant response rating, Bromegrass, Downy: 31 g ai/ha, scale 0 to 100 (0 no effect, 100 complete control)
Procedure, shortened: as §2

[8] = system: soybean; assay: Test C pre-/postemergence test; assay type: in vivo, Glycine max; settings: for Plant response rating, Soybean: 31 g ai/ha, scale 0 to 100 (0 no effect, 100 complete control)
Procedure, shortened: as §2

[9] = system: wheat; assay: Test A pre-/postemergence greenhouse test; assay type: in vivo, Triticum aestivum; settings: for Plant response rating, Wheat: 0 to 100 scale where 0 is no effect and 100 is complete control; for Wheat plant response rating: 0 to 100 scale
Procedure, shortened: as §1

[10] = system: morningglory; assay: Test A pre-/postemergence greenhouse test; assay type: in vivo, Ipomoea spp.; settings: for Plant response rating, Morningglory: 0 to 100 scale where 0 is no effect and 100 is complete control; for Morningglory plant response rating: 0 to 100 scale
Procedure, shortened: as §1

[11] = system: Goosegrass; assay: Test C pre-/postemergence test; assay type: in vivo, Eleusin indica; settings: for Plant response rating, Goosegrass: 31 g ai/ha, scale 0 to 100 (0 no effect, 100 complete control)
Procedure, shortened: as §2

[12] = system: cocklebur; assay: Test C pre-/postemergence test; assay type: in vivo, Xanthium strumarium; settings: for Plant response rating, Cocklebur: 31 g ai/ha, scale 0 to 100 (0 no effect, 100 complete control)
Procedure, shortened: as §2

[13] = system: morningglory; assay: Test C pre-/postemergence test; assay type: in vivo, Ipomoea coccinea; settings: for Plant response rating, Morningglory: 31 g ai/ha, scale 0 to 100 (0 no effect, 100 complete control)
Procedure, shortened: as §2

[14] = system: lambsquarters; assay: Test C pre-/postemergence test; assay type: in vivo, Chenopodium album; settings: for Plant response rating, Lambsquarters: 31 g ai/ha, scale 0 to 100 (0 no effect, 100 complete control)
Procedure, shortened: as §2

[15] = system: giant foxtail; assay: Test C pre-/postemergence test; assay type: in vivo, Setaria faberii; settings: for Plant response rating, Foxtail, Giant: 31 g ai/ha, scale 0 to 100 (0 no effect, 100 complete control)
Procedure, shortened: as §2

[16] = system: woolly cupgrass; assay: Test C pre-/postemergence test; assay type: in vivo, Eriochloa villosa; settings: for Plant response rating, Cupgrass, Woolly: 31 g ai/ha, scale 0 to 100 (0 no effect, 100 complete control)
Procedure, shortened: as §2

[17] = system: giant foxtail; assay: Test A pre-/postemergence greenhouse test; assay type: in vivo, Setaria faberi; settings: for Plant response rating, Foxtail, Giant: 0 to 100 scale where 0 is no effect and 100 is complete control; for Foxtail, Giant plant response rating: 0 to 100 scale
Procedure, shortened: as §1

[18] = Postemergence, 500 g ai/ha, 0 is no effect, 100 is complete control
[19] = Preemergence, 125 g ai/ha, 0 no effect, 100 complete control
[20] = 250 g ai/ha, scale 0 to 100, 0 no effect, 100 complete control, 13 to 15 days
[21] = 62 g ai/ha, Preemergence, scale 0 to 100
[22] = 125 g ai/ha, preemergence, scale 0 (no effect) to 100 (complete control)
[23] = preemergence, 250 g ai/ha, scale 0 (no effect) to 100 (complete control)
[24] = Postemergence, 125 g ai/ha, 0 is no effect, 100 is complete control
[25] = preemergence, 125 g ai/ha, scale 0 (no effect) to 100 (complete control)

Compound: Cn1nc(C(F)(F)F)c(CS(=O)(=O)c2cccc[n+]2[O-])c1OCC(F)F [Compound 81]
- Plant response rating, Crabgrass, Large ([1]; Postemergence, 125 g ai/ha): 50
- Crabgrass, Large plant response rating [1, 18]: 70
- Crabgrass, Large plant response rating [1, 19]: 80
- Plant response rating, Crabgrass, Large ([1]; Preemergence, 500 g ai/ha): 100
- Plant response rating, Sedge, Umbrella ([2]; 62 g ai/ha, scale 0 to 100 (0 no effect, 100 complete control)): 75
- Plant response rating, Sedge, Umbrella [2, 20]: 95
- Ragweed plant response rating [3, 21]: 80
- Ragweed plant response rating [3, 22]: 100
- Plant response rating, Ragweed ([3]; Preemergence): 0
- Ragweed plant response rating [3, 23]: 100
- Johnsongrass plant response rating [4, 21]: 95
- Johnsongrass plant response rating [4, 22]: 100
- Plant response rating, Johnsongrass ([4]; Preemergence): 95
- Johnsongrass plant response rating [4, 23]: 100
- Nutsedge, Yellow plant response rating [5, 21]: 70
- Nutsedge, Yellow plant response rating [5, 22]: 85
- Plant response rating, Nutsedge, Yellow ([5]; Preemergence): 50
- Nutsedge, Yellow plant response rating [5, 23]: 98
- Corn plant response rating [6, 21]: 20
- Corn plant response rating [6, 22]: 100
- Plant response rating, Corn ([6]; Preemergence): 0
- Corn plant response rating [6, 23]: 100
- Bromegrass, Downy plant response rating [7, 21]: 40
- Bromegrass, Downy plant response rating [7, 22]: 100
- Plant response rating, Bromegrass, Downy ([7]; Preemergence): 40
- Bromegrass, Downy plant response rating [7, 23]: 100
- Soybean plant response rating [8, 21]: 0
- Soybean plant response rating [8, 22]: 100
- Plant response rating, Soybean ([8]; Preemergence): 0
- Soybean plant response rating [8, 23]: 100
- Plant response rating, Wheat ([9]; Postemergence, 125 g ai/ha): 20
- Wheat plant response rating [9, 18]: 60
- Wheat plant response rating [9, 19]: 10
- Plant response rating, Wheat ([9]; Preemergence, 500 g ai/ha): 80
- Plant response rating, Morningglory ([10]; Postemergence, 125 g ai/ha): 30
- Morningglory plant response rating [10, 18]: 50
- Morningglory plant response rating [10, 19]: 0
- Plant response rating, Morningglory ([10]; Preemergence, 500 g ai/ha): 80
- Goosegrass plant response rating [11, 21]: 98
- Goosegrass plant response rating [11, 22]: 100
- Plant response rating, Goosegrass ([11]; Preemergence): 55
- Goosegrass plant response rating [11, 23]: 100
- Cocklebur plant response rating [12, 21]: 0
- Cocklebur plant response rating [12, 22]: 50
- Plant response rating, Cocklebur ([12]; Preemergence): 0
- Cocklebur plant response rating [12, 23]: 60
- Morningglory plant response rating [13, 21]: 0
- Morningglory plant response rating [13, 22]: 85
- Plant response rating, Morningglory ([13]; Preemergence): 0
- Morningglory plant response rating [13, 23]: 85
- Lambsquarters plant response rating [14, 21]: 100
- Lambsquarters plant response rating [14, 22]: 100
- Plant response rating, Lambsquarters ([14]; Preemergence): 80
- Lambsquarters plant response rating [14, 23]: 100
- Foxtail, Giant plant response rating [15, 21]: 98
- Foxtail, Giant plant response rating [15, 22]: 100
- Plant response rating, Foxtail, Giant ([15]; Preemergence): 80
- Foxtail, Giant plant response rating [15, 23]: 100
- Cupgrass, Woolly plant response rating [16, 21]: 100
- Cupgrass, Woolly plant response rating [16, 22]: 100
- Plant response rating, Cupgrass, Woolly ([16]; Preemergence): 85
- Cupgrass, Woolly plant response rating [16, 23]: 100
- Plant response rating, Foxtail, Giant ([17]; Postemergence, 125 g ai/ha): 80
- Foxtail, Giant plant response rating [17, 18]: 80
- Foxtail, Giant plant response rating [17, 19]: 90
- Plant response rating, Foxtail, Giant ([17]; Preemergence, 500 g ai/ha): 100

Compound: Cc1cc[n+]([O-])c([S+]([O-])Cc2c(C(F)(F)F)nn(C)c2Cl)c1 (racemic) [Compound 20]
- Crabgrass, Large plant response rating [1, 24]: 40
- Crabgrass, Large plant response rating [1, 18]: 80
- Crabgrass, Large plant response rating [1, 19]: 80
- Plant response rating, Crabgrass, Large ([1]; Preemergence, 500 g ai/ha): 100
- Plant response rating, Sedge, Umbrella ([2]; 31 g ai/ha, scale 0 to 100 (0 no effect, 100 complete control)): 0
- Plant response rating, Sedge, Umbrella ([2]; 62 g ai/ha, scale 0 to 100, 0 no effect, 100 complete control, 13 to 15 days): 0
- Plant response rating, Sedge, Umbrella ([2]; 125 g ai/ha, scale 0 to 100, 0 no effect, 100 complete control, 13 to 15 days): 85
- Plant response rating, Sedge, Umbrella [2, 20]: 85
- Plant response rating, Ragweed ([3]; Preemergence): 0
- Johnsongrass plant response rating [4, 21]: 80
- Plant response rating, Johnsongrass ([4]; Preemergence): 60
- Plant response rating (0 to 100), Johnsongrass ([4]; Preemergence, 250 g ai/ha): 100
- Nutsedge, Yellow plant response rating [5, 21]: 10
- Plant response rating, Nutsedge, Yellow ([5]; Preemergence): 0
- Corn plant response rating [6, 21]: 20
- Plant response rating, Corn ([6]; Preemergence): 0
- Plant response rating (0 to 100), Corn ([6]; Preemergence, 250 g ai/ha): 85
- Corn plant response rating [6, 25]: 50
- Bromegrass, Downy plant response rating [7, 21]: 0
- Plant response rating, Bromegrass, Downy ([7]; Preemergence): 0
- Plant response rating (0 to 100), Bromegrass, Downy ([7]; Preemergence, 250 g ai/ha): 70
- Bromegrass, Downy plant response rating [7, 25]: 70
- Soybean plant response rating [8, 21]: 0
- Plant response rating, Soybean ([8]; Preemergence): 0
- Wheat plant response rating [9, 24]: 0
- Wheat plant response rating [9, 18]: 60
- Wheat plant response rating [9, 19]: 30
- Plant response rating, Wheat ([9]; Preemergence, 500 g ai/ha): 80
- Morningglory plant response rating [10, 24]: 40
- Morningglory plant response rating [10, 18]: 60
- Morningglory plant response rating [10, 19]: 70
- Plant response rating, Morningglory ([10]; Preemergence, 500 g ai/ha): 80
- Goosegrass plant response rating [11, 21]: 100
- Plant response rating, Goosegrass ([11]; Preemergence): 85
- Plant response rating (0 to 100), Goosegrass ([11]; Preemergence, 250 g ai/ha): 100
- Cocklebur plant response rating [12, 21]: 0
- Plant response rating, Cocklebur ([12]; Preemergence): 0
- Plant response rating (0 to 100), Cocklebur ([12]; Preemergence, 250 g ai/ha): 20
- Cocklebur plant response rating [12, 25]: 0
- Morningglory plant response rating [13, 21]: 85
- Plant response rating, Morningglory ([13]; Preemergence): 0
- Lambsquarters plant response rating [14, 21]: 100
- Plant response rating, Lambsquarters ([14]; Preemergence): 90
- Foxtail, Giant plant response rating [15, 21]: 98
- Plant response rating, Foxtail, Giant ([15]; Preemergence): 85
- Plant response rating (0 to 100), Foxtail, Giant ([15]; Preemergence, 250 g ai/ha): 100
- Cupgrass, Woolly plant response rating [16, 21]: 70
- Plant response rating, Cupgrass, Woolly ([16]; Preemergence): 0
- Plant response rating (0 to 100), Cupgrass, Woolly ([16]; Preemergence, 250 g ai/ha): 100
- Foxtail, Giant plant response rating [17, 24]: 50
- Foxtail, Giant plant response rating [17, 18]: 80
- Foxtail, Giant plant response rating [17, 19]: 80
- Plant response rating, Foxtail, Giant ([17]; Preemergence, 500 g ai/ha): 100
